Results published in the supplement of paper PMC10307832.

What was measured:
Experiment in all cases: relative viability (nuclei count vs DMSO), 5 days (fraction); higher = more cells survive
KIN001-266 = compound: CCN1CCC(CC1)N2C=C(N=N2)CNC3=CC4=C(C(=CN=C4C(=C3)Cl)C#N)NC5=CC(=C(C=C5)F)Cl [KIN001-266]
Summary of the method: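 Lung cancer cell lines in 1536-well plates were kept overnight at 37 °C, then pinned with five library-drug doses (not always all listed) spaced by √10 on vehicle-anchored plates. After 5 days without medium change, cells were fixed, permeabilised and Hoechst-stained in one step, imaged at 4×, and nuclei were counted with MetaXpress. Viability is treated-well nuclei divided by vehicle-well nuclei, taken as the median over plates. Plates passed only with control CV below 25% and at least one doubling.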

KIN001-266 + Trametinib = compound: CCN1CCC(CC1)N2C=C(N=N2)CNC3=CC4=C(C(=CN=C4C(=C3)Cl)C#N)NC5=CC(=C(C=C5)F)Cl [KIN001-266] + CC(=O)Nc1cccc(-n2c(=O)n(C3CC3)c(=O)c3c(Nc4ccc(I)cc4F)n(C)c(=O)c(C)c32)c1 [Trametinib] (partner 0.02 µM)
Summary of the method: (§1)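 Five library-drug doses in √10 steps were combined with a fixed anchor-drug dose, or a single drug was given alone, by pin tool to lung cancer cell lines in 1536-well plates the day after seeding. Nuclei were stained and counted after 5 days. Relative viability is the nuclei count in treated wells over that in vehicle wells, taken as the median of duplicate plates.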

KIN001-266 + Tozasertib = compound: CCN1CCC(CC1)N2C=C(N=N2)CNC3=CC4=C(C(=CN=C4C(=C3)Cl)C#N)NC5=CC(=C(C=C5)F)Cl [KIN001-266] + Cc1cc(Nc2cc(N3CCN(C)CC3)nc(Sc3ccc(NC(=O)C4CC4)cc3)n2)n[nH]1 [Tozasertib] (partner 0.1 µM)
Summary of the method: as §1

KIN001-266 + AZD7762 = compound: CCN1CCC(CC1)N2C=C(N=N2)CNC3=CC4=C(C(=CN=C4C(=C3)Cl)C#N)NC5=CC(=C(C=C5)F)Cl [KIN001-266] + NC(=O)Nc1cc(-c2cccc(F)c2)sc1C(=O)N[C@H]1CCCNC1 [AZD7762] (partner 0.2 µM)
Summary of the method: as §1

Row | Cell Line | relative viability (KIN001-266; 0.08 µM) | relative viability (KIN001-266; 0.253 µM) | relative viability (KIN001-266; 0.8 µM) | relative viability (KIN001-266; 2.53 µM) | relative viability (KIN001-266; 8 µM) | relative viability (KIN001-266 + Trametinib; first compound 0.08 µM) | relative viability (KIN001-266 + Trametinib; first compound 0.253 µM) | relative viability (KIN001-266 + Trametinib; first compound 0.8 µM) | relative viability (KIN001-266 + Trametinib; first compound 2.53 µM) | relative viability (KIN001-266 + Trametinib; first compound 8 µM) | relative viability (KIN001-266 + Tozasertib; first compound 0.08 µM) | relative viability (KIN001-266 + Tozasertib; first compound 0.253 µM) | relative viability (KIN001-266 + Tozasertib; first compound 0.8 µM) | relative viability (KIN001-266 + Tozasertib; first compound 2.53 µM) | relative viability (KIN001-266 + Tozasertib; first compound 8 µM) | relative viability (KIN001-266 + AZD7762; first compound 0.08 µM) | relative viability (KIN001-266 + AZD7762; first compound 0.253 µM) | relative viability (KIN001-266 + AZD7762; first compound 0.8 µM) | relative viability (KIN001-266 + AZD7762; first compound 2.53 µM) | relative viability (KIN001-266 + AZD7762; first compound 8 µM)
1 | NCI-H2126 | 1.01 | 1.03 | 0.978 | 0.925 | 0.975 | 0.583 | 0.554 | 0.621 | 0.568 | 0.518 | 0.8 | 0.857 | 0.85 | 0.84 | 0.78 | 1.03 | 1.02 | 1 | 0.814 | 1.05
2 | LXF-289 | 0.949 | 0.984 | 1 | 1 | 1.06 | 0.678 | 0.683 | 0.683 | 0.679 | 0.708 | 0.186 | 0.236 | 0.172 | 0.201 | 0.189 | 0.996 | 1.04 | 1.09 | 1.09 | 1.19
3 | HCC-44 | 0.967 | 0.994 | 0.983 | 0.968 | 1.08 | 1.13 | 1.06 | 1.07 | 1.07 | 1.16 | 0.886 | 0.917 | 0.976 | 0.987 | 0.865 | 1.04 | 1.01 | 0.989 | 0.969 | 1.05
4 | NCI-H2342 | 1.02 | 0.971 | 0.958 | 0.965 | 1.1 | 0.922 | 0.868 | 0.848 | 1.01 | 1.22 | 0.524 | 0.506 | 0.584 | 0.627 | 0.414 | 0.559 | 0.492 | 0.451 | 0.431 | 0.545
5 | PC-14 | 0.933 | 1.07 | 0.84 | 0.885 | 0.485 | 0.715 | 0.729 | 0.808 | 0.518 | 0.141 | 0.577 | 0.655 |  | 0.589 | 0.432 | 0.365 | 0.405 | 0.315 | 0.355 | 0.3
6 | HOP-62 | 1.01 | 1.05 | 1.02 | 1.02 | 0.995 | 0.391 | 0.387 | 0.379 | 0.311 | 0.293 | 0.414 | 0.381 | 0.384 | 0.328 | 0.319 | 0.583 | 0.671 | 1.03 | 0.729 | 0.447
7 | NCI-H358 | 0.893 | 0.98 | 0.917 | 0.828 | 0.45 | 0.174 | 0.17 | 0.138 | 0.115 | 0.117 | 0.107 | 0.129 | 0.132 | 0.0982 | 0.0945 | 0.574 | 0.459 | 0.41 | 0.547 | 0.474
8 | NCI-H1666 | 1.07 | 1 | 0.896 | 0.99 | 0.959 | 0.909 | 0.897 | 0.713 | 0.855 | 0.761 | 0.586 | 0.642 | 0.605 | 0.572 | 0.486 | 0.921 | 0.799 | 0.744 | 0.826 | 0.767
9 | NCI-H1355 | 0.986 | 1.02 | 0.979 | 0.924 | 0.908 | 0.445 | 0.473 | 0.48 | 0.406 | 0.394 | 0.62 | 0.593 | 0.515 | 0.513 | 0.506 | 0.771 | 0.734 | 0.73 | 0.556 | 0.521
10 | HCC-827 | 1.03 | 1.05 | 0.715 | 1.08 | 0.98 | 0.489 | 0.577 | 0.468 | 0.545 | 0.49 | 0.442 | 0.432 | 0.41 | 0.359 | 0.389 | 0.28 | 0.224 | 0.131 | 0.215 | 0.196
11 | HARA | 0.959 | 1.04 | 0.937 | 1.06 | 0.747 | 0.634 | 0.868 | 0.91 | 0.858 | 0.424 | 0.124 | 0.13 | 0.102 | 0.0995 | 0.0873 | 0.306 | 0.369 | 0.364 | 0.233 | 0.261
12 | HCC-366 | 1.02 | 1.01 | 0.992 | 1.01 | 0.969 | 0.446 | 0.468 | 0.32 | 0.334 | 0.277 | 0.156 | 0.286 | 0.0999 | 0.127 | 0.111 | 0.552 | 0.361 | 0.175 | 0.26 | 0.175
13 | NCI-H322M | 1.04 | 1 | 0.928 | 0.785 | 0.779 | 0.487 | 0.515 | 0.5 | 0.479 | 0.497 | 0.451 | 0.554 | 0.513 | 0.433 | 0.458 | 0.63 | 0.64 | 0.612 | 0.451 | 0.544
14 | NCI-H2347 | 1.04 | 1 | 1 | 0.989 | 0.582 | 0.304 | 0.323 | 0.282 | 0.278 | 0.22 | 0.521 | 0.5 | 0.558 | 0.518 | 0.367 | 0.77 | 0.799 | 0.771 | 0.736 | 0.537
15 | NCI-H1975 | 0.989 | 0.97 | 0.966 | 1.03 | 0.965 | 0.435 | 0.343 | 0.346 | 0.461 | 0.325 | 0.821 | 0.776 | 0.762 | 0.699 | 0.505 | 0.733 | 0.689 | 0.776 | 0.756 | 0.678
16 | NCI-H522 | 1.13 | 0.937 | 1.05 | 0.925 | 0.914 | 0.78 | 0.907 | 0.797 | 0.638 | 0.706 | 0.562 | 0.498 | 0.566 | 0.502 | 0.594 | 0.951 | 0.85 | 0.786 | 0.822 | 0.79
17 | A-427 | 1.04 | 1.06 | 1.05 | 0.928 | 0.953 | 0.823 | 0.73 | 0.711 | 0.618 | 0.658 | 0.24 | 0.21 | 0.178 | 0.186 | 0.181 | 0.722 | 0.697 | 0.761 | 0.644 | 0.599
18 | LCLC-97TM1 | 0.942 | 0.853 | 0.917 | 0.866 | 0.906 | 0.18 | 0.185 | 0.199 |  | 0.164 | 0.196 | 0.209 | 0.186 | 0.171 | 0.223 | 0.339 |  | 0.281 |  | 0.212
19 | HCC-15 | 1.02 | 1.03 | 0.875 | 0.868 | 0.689 | 0.413 | 0.392 | 0.388 | 0.344 | 0.328 | 0.443 | 0.358 | 0.25 | 0.24 | 0.19 | 1.23 | 1.14 | 1.18 | 0.6 | 1.06
20 | NCI-H647 | 1.03 | 1.01 | 1.11 | 0.94 | 0.942 | 0.452 | 0.443 | 0.474 | 0.419 | 0.375 | 0.277 | 0.213 | 0.265 | 0.352 | 0.156 | 0.432 | 0.366 | 0.568 | 0.431 | 0.434
21 | NCI-H1651 | 0.955 | 1.01 | 0.957 | 1.01 | 0.96 | 0.847 | 0.833 | 0.772 | 0.771 | 0.854 | 0.782 | 0.591 | 0.51 | 0.78 | 0.396 | 0.46 | 0.44 | 0.376 | 0.328 | 0.49
22 | NCI-H1734 | 1.01 | 1.01 | 1.08 | 0.858 | 0.855 | 0.671 | 0.715 | 0.606 | 0.672 | 0.608 | 0.256 | 0.295 | 0.279 | 0.232 | 0.243 | 0.566 | 0.635 | 0.438 | 0.631 | 0.461
23 | NCI-H3122 | 0.967 | 1.02 | 1.01 | 0.919 | 0.95 | 0.234 | 0.218 | 0.223 | 0.232 | 0.292 | 0.428 | 0.389 | 0.389 | 0.378 | 0.37 | 0.937 | 1.15 | 1.08 | 0.947 | 0.956
24 | CAL-12T | 1.07 | 0.965 | 0.956 | 1.09 | 0.994 | 0.357 | 0.442 | 0.351 | 0.293 | 0.37 | 0.345 | 0.3 | 0.291 | 0.312 | 0.255 | 0.633 | 0.639 | 0.574 | 0.642 | 0.606
25 | HCC-78 | 0.964 | 0.998 | 0.913 | 0.99 | 0.956 | 0.747 | 0.705 | 0.667 | 0.838 | 0.753 | 0.404 | 0.444 |  | 0.373 | 0.317 | 0.654 | 0.603 | 0.469 | 0.619 | 0.694
26 | NCI-H2085 | 1 | 1.04 | 0.865 | 0.973 | 0.777 | 0.569 | 0.457 | 0.567 | 0.558 | 0.541 | 0.911 | 0.858 | 0.83 | 0.793 | 0.765 | 0.971 | 1.03 | 0.847 | 0.962 | 0.977
